{"source": "patent US20220062166A1", "about": "“Self-Gelling Solutions for Administration of Therapeutics to the Inner Ear” (Spiral Therapeutics, Inc., priority 2019, published 2022)", "key": {"[1]": {"assay": "Cochlear and plasma distribution after TT administration in rats (UPLC-ESI/MS/MS)", "format": "in vivo, rat", "description": "Cochleae were harvested and rinsed at several timepoints after intratympanic injection of drug product. Drug concentration (y axis) in cochlear homogenates is expressed as nanograms LPT99 per gram of cochlear homogenate.\nLPT99 cochlear distribution after TT administration was studied in rats. […] LPT99 concentration was quantified with an ultra-performance liquid chromatography tandem mass spectrometry (UPLC-ESI/MS/MS) system.\nDistribution of LPT99 was investigated in cochlea and plasma after a single TT administration in rats. The inhibitor was administered at 50, 100, or 200 μM (dissolved in 5% hydroxypropyl cyclodextrin in physiological serum)."}, "[2]": {"target": "T1, caspase 3 (Homo sapiens, UniProt P42574)", "T1 sequence (P42574 29-277)": "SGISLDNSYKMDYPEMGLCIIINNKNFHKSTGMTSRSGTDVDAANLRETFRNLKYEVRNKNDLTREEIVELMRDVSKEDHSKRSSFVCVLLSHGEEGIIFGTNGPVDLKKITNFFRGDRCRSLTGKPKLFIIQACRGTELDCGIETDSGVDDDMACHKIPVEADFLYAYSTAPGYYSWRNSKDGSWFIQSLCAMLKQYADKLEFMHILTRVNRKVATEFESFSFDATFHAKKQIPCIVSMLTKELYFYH", "assay": "Caspase 3 activation assay with recombinant proteins", "format": "biochemical", "settings": "in %", "method": "(§1) The specificity of LPT99 was tested in vitro on Apaf1, caspase 3, and caspase 9 (proteins from the apoptotic cascade), and a broad panel of potential pharmacological targets.\n(§2) LPT99 inhibited the formation of the apoptosome complex composed by recombinant Apaf1, cyt c, deoxyadenosine triphosphate (dATP), and caspase 9. This activity was measured as inhibition of caspase 3 activation. […] To evaluate the specificity of the inhibition, an assay of caspase 3 and 9 activation was set up with recombinant proteins. The inhibitions of caspase 3 and 9 were 7.6±14.7 and 5.3±3.5, respectively, for LPT99."}, "[3]": {"target": "T2, caspase 9 (Homo sapiens, UniProt P55211)", "T2 sequence (P55211 1-416)": "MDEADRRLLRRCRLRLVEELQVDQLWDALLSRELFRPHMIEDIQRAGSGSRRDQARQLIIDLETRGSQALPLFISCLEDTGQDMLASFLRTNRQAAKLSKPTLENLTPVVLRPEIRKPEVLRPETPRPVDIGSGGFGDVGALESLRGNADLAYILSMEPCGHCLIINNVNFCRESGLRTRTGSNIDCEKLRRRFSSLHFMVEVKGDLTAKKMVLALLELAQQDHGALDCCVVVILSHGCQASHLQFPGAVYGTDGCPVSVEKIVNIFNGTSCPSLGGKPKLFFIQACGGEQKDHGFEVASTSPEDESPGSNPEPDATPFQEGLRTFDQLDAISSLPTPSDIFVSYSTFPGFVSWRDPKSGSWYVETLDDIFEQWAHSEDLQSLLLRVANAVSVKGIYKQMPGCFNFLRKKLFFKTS", "assay": "Caspase 9 activation assay with recombinant proteins", "format": "biochemical", "settings": "in %", "method": "as §1, §2"}, "[4]": {"assay": "GLP dermal sensitization main study (Buehler test) in guinea pigs", "format": "in vivo, guinea pig", "settings": "24 or 48 hours after the challenge dose, 797 μM", "method": "A GLP-compliant dermal sensitization study was conducted with LPT99 in guinea pigs. The objective was to assess potential dermal sensitization of LPT99 using the Buehler test (Buehler, Arch Dermatol. 1965, 91, 171-7). The test article, LPT99, was in a neutral-pH, buffered, isotonic solution containing a thermoreversible compound. The vehicle control was buffered at neutral pH and formulated as for the test article; it contained POLOXAMER® 407, disodium phosphate dodecahydrate hydrogen, sodium dihydrogen phosphate dihydrate, sodium chloride, and water for injection. The main study consisted of 2 groups of 20 or 10 guinea pigs. Group 1 was 10 male and 10 female guinea pigs dosed with the highest concentration of LPT99, 797 μM, that was used in the dose range-finding substudy (Group 1). Group 2 was 5 male and 5 female animals that were not dosed with LPT99 (Group 2) during the induction phase and served as naïve controls; Group 2 was challenged with LPT99 on Day 28. LPT99 was topically administered to the skin in the shaved scapula area in a volume of 50 μL on Study Days 0, 7, and 14 (induction doses), and on Day 28 (challenge dose). […] The PDII (post-challenge) was calculated for the test article or vehicle by dividing the sum of the Total Irritation Score by the number of observations (e.g., 3 days×6 animals=18 (number of observations)."}}, "note": "“Also recorded” adds a separate entry of the source.", "data": [{"smiles": "COc1ccc2[nH]cc(CCNC(=O)CC3C(=O)N(CCc4ccc(Cl)cc4Cl)CC(=O)N3CCc3cccs3)c2c1", "note": "(stereo not shown) [LPT99, 2-(4-(2,4-dichlorophenethyl)-3,6-dioxo-1-(2-(thiophen-2-yl)ethyl)piperazin-2-yl)-N-(2-(5-methoxy-1H-indol-3-yl)ethyl)acetamide]", "values": [{"measurement": "detection in administered cochleae", "setting": "[1]; 0.5 and 1 hour, 50, 100, or 200 μM in 5% hydroxypropyl cyclodextrin", "value": "detected in all administered cochleae"}, {"measurement": "LPT99 in plasma (not found; detection limit)", "setting": "[1]; after TT administration of the LPT99 formulation in a hydrogel", "value": "< 2", "unit": "ng/mL"}, {"measurement": "concentrations in contralateral cochleae and plasma", "setting": "[1]; all time points, 50, 100, or 200 μM in 5% hydroxypropyl cyclodextrin", "value": "BLLQ"}, {"measurement": "LPT99 concentrations in plasma (BLLQ)", "setting": "[1]; all time-points and doses", "value": "< 2", "unit": "ng/mL"}, {"measurement": "LPT99 concentrations in the contralateral cochleae (BLLQ)", "setting": "[1]; all time-points and doses", "value": "< 3", "unit": "ng/g"}, {"measurement": "distribution to cochlea after TT administration", "setting": "[1]; rats, FIG. 4", "value": "distributed locally to the cochlea; also recorded: distributed to cochlea in a dose-dependent manner"}, {"measurement": "distribution to contralateral cochleae or plasma", "setting": "[1]; rats, TT", "value": "No distribution to the contralateral cochleae or plasma was observed"}, {"measurement": "inhibition of caspase 3", "setting": "[2]", "value": "7.6±14.7"}, {"measurement": "inhibition of caspase 9", "setting": "[3]", "value": "5.3±3.5"}, {"measurement": "Draize scores", "setting": "[4]", "value": "No Draize scores were >0"}]}]}
